Assay results: publication PMC5400251, “Effect of quinoline based 1,2,3-triazole and its structural analogues on growth and virulence attributes of Candida albicans” (PLoS ONE, 2017)

Tests used:
[1] = molecular target: T1, plasma membrane H+ ATPase (Candida albicans, UniProt P28877); assay: Measurement of intracellular pH (pHi); format: cell-based, C. albicans D15.9 (FLC-resistant); conditions: 100 μg/mL; untreated 6.4
T1 construct: endogenous in cells; host or cells: C. albicans ATCC 90028; clinical isolates C. albicans D27 (FLC-susceptible) and D15.9 (FLC-resistant); mid-log phase whole cells
Procedure: In yeast cells, plasma membrane H^+-ATPase helps to maintain internal pH between 6.0 and 7.5. Intracellular pH (pHi) was measured as reported earlier by Manzoor et al.. Mid-log phase cells were harvested from SD medium and washed thrice with PBS. Subsequently, cells (0.1 g) were suspended in 5 mL solution of 0.1 M KCl, and 0.1 mM CaCl2 in distilled water. Compounds 3a and 3b were added to the suspension at a desired concentration of 100 μg/mL. […] Initial pH of the suspension was adjusted to 7.0 in each case and incubated for 30 min at 37°C with constant stirring. After incubation, the pH of suspension was again adjusted to 7.0 followed by the addition of nystatin (20 μM) and incubation at 37°C for 1 h. The change in pH of the suspension was monitored on a pH meter with constant stirring. The value of external pH at which nystatin permeabilization induced no further shift was taken as an estimate of pHi.

[2] = system: C. albicans ATCC 90028 (Standard); assay: Growth assay (growth curve); format: cell-based; conditions: sub-MIC (MIC/2)
Procedure: (§1) The C. albicans cells were freshly revived by subculture on the SD agar plate. A loopful of inoculum was introduced into the SD broth and cells were grown for 16 h at 37°C before use. Approximately 2×10^3 cells/mL were then inoculated into the freshly prepared 50 mL sterile SD medium. […] At predetermined time periods (0, 2, 4, 6, 8, 10, 12, 14, 16, 18, 20 22, and 24 after incubation with agitation at 37°C), 1 mL aliquot of each sample was removed from the conical flask and growth was measured tubidometrically at 600 nm using Thermo Multiskan spectrophotometer. Optical density was recorded for each concentration against time (h).

[3] = system: C. albicans D15.9 (FLC-resistant); assay: Growth assay (growth curve); format: cell-based; conditions: sub-MIC (MIC/2)
Procedure: as §1

[4] = system: C. albicans D27 (FLC-susceptible); assay: Growth assay (growth curve); format: cell-based; conditions: sub-MIC (MIC/2)
Procedure: as §1

T1 sequence (P28877 whole entry): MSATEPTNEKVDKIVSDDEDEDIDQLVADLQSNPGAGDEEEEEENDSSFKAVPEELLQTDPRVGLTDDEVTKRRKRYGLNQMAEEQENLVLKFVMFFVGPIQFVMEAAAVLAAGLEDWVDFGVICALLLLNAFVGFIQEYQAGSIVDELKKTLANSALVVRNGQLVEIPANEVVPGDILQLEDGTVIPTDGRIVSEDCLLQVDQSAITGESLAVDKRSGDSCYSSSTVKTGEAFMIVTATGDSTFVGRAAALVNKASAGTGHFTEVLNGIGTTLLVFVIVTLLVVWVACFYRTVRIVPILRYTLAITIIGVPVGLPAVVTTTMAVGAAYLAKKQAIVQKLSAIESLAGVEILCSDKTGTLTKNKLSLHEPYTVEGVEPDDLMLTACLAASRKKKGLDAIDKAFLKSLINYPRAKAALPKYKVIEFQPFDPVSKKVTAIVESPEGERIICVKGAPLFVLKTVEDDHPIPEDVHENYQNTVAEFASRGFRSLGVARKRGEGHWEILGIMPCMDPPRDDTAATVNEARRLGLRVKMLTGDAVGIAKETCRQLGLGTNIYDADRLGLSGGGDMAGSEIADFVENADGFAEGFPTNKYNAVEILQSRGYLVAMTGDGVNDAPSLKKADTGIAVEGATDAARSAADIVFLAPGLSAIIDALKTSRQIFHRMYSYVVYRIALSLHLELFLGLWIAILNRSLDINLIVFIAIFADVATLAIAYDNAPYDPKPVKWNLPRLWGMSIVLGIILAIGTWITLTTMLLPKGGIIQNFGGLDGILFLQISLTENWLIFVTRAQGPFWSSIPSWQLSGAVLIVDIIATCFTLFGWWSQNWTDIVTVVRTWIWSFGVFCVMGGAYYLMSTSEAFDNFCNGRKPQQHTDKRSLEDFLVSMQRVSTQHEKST

c1ccc(Cn2cc(COc3cccc4cccnc34)nn2)cc1 [Compound 3a]
Intracellular pH (pHi) [1]: 5.4

Clc1ccc(OCc2cn(Cc3ccccc3)nn2)c2ncccc12 [Compound 3b, 8-((1-Benzyl-1H-1,2,3-triazol-4-yl)methoxy)-5-chloroquinoline]
Time after which growth was observed [2]: 20 h | Time after which growth was observed [3]: 14 h | Time after which growth was observed [4]: 18 h | Intracellular pH (pHi) [1]: 4.7 | melting point: 148 to 149 °C
